# Reference: patent US8569264B2, “Antibacterial 4,5-substituted aminoglycoside analogs having multiple substituents” (ISIS Pharmaceuticals, Inc., priority 2005, dated 2013)
# Columns and labels:
# [1] = biological target: 18S ribosomal subunit RNA target; assay: Mass spectrometry based binding assay (FTICR), 18S; conditions: FTICR mass spectrometry; Example 105
# In short: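 Ligands at varying concentrations were mixed with 2.5 or 5 μM RNA in 100 mM ammonium acetate with 33% isopropyl alcohol, then analysed by negative-mode ESI-FTICR. Complex/free RNA ion ratios plotted against ligand concentration were fitted to a second- or higher-order binding polynomial to give KD.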
# [2] = biological target: 16S ribosomal subunit RNA target; assay: Mass spectrometry based binding assay (FTICR), 16S; conditions: FTICR mass spectrometry; run at 100 nM RNA; Example 105
# In short: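 Binding to the 16S ribosomal subunit RNA target was measured by FTICR mass spectrometry. Ligands or ligand mixtures were prepared at several concentrations in 10 μL of aqueous 100 mM ammonium acetate buffer with 33% isopropyl alcohol. Samples were infused at 1 μL/min into a negative-mode electrospray source, and ions were held 1 sec in an RF-only hexapole. Complex/free RNA ratios versus ligand concentration were fitted to a binding polynomial to obtain KD.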
# [3] = system: E. coli S30 bacterial extract (pBestLuc firefly luciferase reporter); assay: Coupled bacterial transcription/translation assay; format: biochemical; conditions: Example 105; read-out: Trans/Trans IC50
# In short: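 Coupled transcription/translation of firefly luciferase from 1 μg pBestLuc (tac promoter) in E. coli S30 extract, with or without test compound. Reaction 35 min at 37° C., then functional luciferase detected by luminescence.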
# E. Coli = assay: MIC, E. Coli; format: cell-based; conditions: Example 105
# In short: (§1)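 Broth microdilution in duplicate, 150 μL: overnight-culture bacteria were added to compound in 4% DMSO in water. Final inoculum was about 10^5–10^6 CFU/well.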
# S. Aureus = assay: MIC, S. Aureus; format: cell-based; conditions: Example 105
# In short: as §1
# E. coli ATCC 25922 = assay: MIC, E. coli ATCC 25922; format: cell-based
# Method: (§2) The MIC assays are carried out in 150 μL volume in duplicate in 96-well clear flat-bottom plates. The bacterial suspension from an overnight culture growth in appropriate medium is added to a solution of test compound in 4% DMSO in water. Final bacterial inoculum is approximately 10^5-10^6 CFU/well. […] Both ampicillin and tetracycline are used as antibiotic-positive controls in each screening assay for S. pyogenes, E. coli imp-, E. coli, S. aureus, E. faecalis, K. pneumoniae and P. vulgaris. Ciprofloxacin is used as an antibiotic positive control in each screening assay for P. aeruginosa.
# (§3) The following compounds were prepared using methods illustrated in the previous examples. The compounds were also examined in standard bacterial assays against E. Coli, S. Aureus, P. aurginosa, K. pneumoniae, P. vulgaris, and A. baumannii to determine activities. Each of the bacterial cultures that are available from ATCC (www.atcc.org) is identified by its ATCC number. A. baumannii is gentamicin sensitive Acinetobacter baumannii #2 from Walter Reed.
# S. aureus ATCC 13709 = assay: MIC, S. aureus ATCC 13709; format: cell-based
# Method: as §2, §3
# P. aurginosa ATCC 25416 = assay: MIC, P. aurginosa ATCC 25416; format: cell-based
# Method: as §2, §3
# P. aurginosa ATCC 29248 = assay: MIC, P. aurginosa ATCC 29248; format: cell-based
# Method: as §2, §3
# K. pneumoniae ATCC 10031 = assay: MIC, K. pneumoniae ATCC 10031; format: cell-based
# Method: as §2, §3
# P. vulgaris ATCC 8427 = assay: MIC, P. vulgaris ATCC 8427; format: cell-based
# Method: as §2, §3
# [4] = system: gentamicin sensitive Acinetobacter baumannii #2 from Walter Reed; assay: MIC, A. baumannii WReed 2; format: cell-based
# Method: as §2, §3
# [5] = system: Staphylococcus aureus (Smith Strain ATCC 13709); assay: Staphylococcus aureus mouse protection assay; format: in vivo, mice; conditions: for # Dead mice/Total mice in group: Staph Conc. 10^6, 10% Mucin, the 14th table
# S. aureus ATCC 29213 = assay: MIC, S. aureus ATCC 29213; format: cell-based; conditions: Staphylococcus aureus, ATCC29213; Example 112
# Method: (§4) The MIC assays are carried out in 150 μL volume in duplicate in 96-well clear flat-bottom plates. The bacterial suspension from an overnight culture growth in appropriate medium is added to a solution of test compound in 4% DMSO in water. Final bacterial inoculum is approximately 10^5-10^6 CFU/well. The percent growth of the bacteria in test wells relative to that observed for a well containing no compound is determined by measuring absorbance at 595 nm (A595) after 24 h. The MIC is determined as a range of single compound where the complete inhibition of growth is observed at the higher concentration and cells are viable at the lower concentrations. Both ampicillin and tetracycline are used as antibiotic-positive controls in each screening assay for S. pyogenes, E. coli imp-, E. coli, S. aureus, E. faecalis, K. pneumoniae and P. vulgaris. Ciprofloxacin is used as an antibiotic positive control in each screening assay for P. aeruginosa.
# as §3, with “compound was” for “compounds were”, “pneumoniae” for “pneumoniae, P. vulgaris,”, “number.” for “number. A. baumannii is gentamicin sensitive Acinetobacter baumannii #2 from Walter Reed.”
# P. aurginosa ATCC 27853 = assay: MIC, P. aurginosa ATCC 27853; format: cell-based; conditions: Example 112
# Method: as §4
# as §3, with “compound was” for “compounds were”, “pneumoniae” for “pneumoniae, P. vulgaris,”, “number.” for “number. A. baumannii is gentamicin sensitive Acinetobacter baumannii #2 from Walter Reed.”
# A. baumannii ATCC 19606 = assay: MIC, A. baumannii ATCC 19606; format: cell-based; conditions: Acinetobacter baumannii, ATCC19606; Example 112
# Method: as §4
# as §3, with “compound was” for “compounds were”, “pneumoniae” for “pneumoniae, P. vulgaris,”, “number.” for “number. A. baumannii is gentamicin sensitive Acinetobacter baumannii #2 from Walter Reed.”
# [6] = Example 110, listed as 9p - sample 1
# [7] = Example 110, listed as 9p - sample 2
structure (smiles),measurement,setting,value
NCC1OC(OC2C(CO)OC(OC3C(O)C(N)CC(N)C3OC3OC(CO)C(O)C(O)C3N)C2OCCNCCc2ccccc2)C(N)C(O)C1O (centres unmarked) [Compound 9p],Kd,[1],1300 nM
same,Kd,[2],100 nM
same,IC50,[3],1100 nM
same,MIC E. Coli.,E. Coli,3 to 6 µM
same,MIC S. Aureus,S. Aureus,0.3 to 0.6 µM
same,MIC E. coli ATCC 25922,E. coli ATCC 25922; [6],5 to 10 µM
same,MIC E. coli ATCC 25922,E. coli ATCC 25922; [7],>40 µM
same,MIC E. coli ATCC 25922,E. coli ATCC 25922; Example 111,5 to 10 µM
same,MIC S. aureus ATCC 13709,S. aureus ATCC 13709; [6],10 to 20 µM
same,MIC S. aureus ATCC 13709,S. aureus ATCC 13709; [7],1.2 to 2.5 µM
same,MIC S. aureus ATCC 13709,S. aureus ATCC 13709; Example 111,0.6 to 1.3 µM
same,MIC P. aurginosa ATCC 25416,P. aurginosa ATCC 25416; Example 110,>40 µM
same,MIC P. aurginosa ATCC 25416,P. aurginosa ATCC 25416; Example 111,>40 µM
same,MIC P. aurginosa ATCC 29248,P. aurginosa ATCC 29248; Example 110,>40 µM
same,MIC P. aurginosa ATCC 29248,P. aurginosa ATCC 29248; Example 111,>40 µM
same,MIC K. pneumoniae ATCC 10031,K. pneumoniae ATCC 10031; [6],1.3 to 2.5 µM
same,MIC K. pneumoniae ATCC 10031,K. pneumoniae ATCC 10031; [7],>40 µM
same,MIC K. pneumoniae ATCC 10031,K. pneumoniae ATCC 10031; Example 111,2.5-5^ uM
same,MIC P. vulgaris ATCC 8427,P. vulgaris ATCC 8427; [6],2.5-5^ uM
same,MIC P. vulgaris ATCC 8427,P. vulgaris ATCC 8427; [7],20 to 40 µM
same,MIC P. vulgaris ATCC 8427,P. vulgaris ATCC 8427; Example 111,>40 µM
same,MIC A. baumannii WReed 2,[4]; [6],2.5-5^ uM
same,MIC A. baumannii WReed 2,[4]; [7],>40 µM
same,MIC A. baumannii WReed 2,[4]; Example 111,>40 µM
same,# Dead mice/Total mice in group,[5]; 0.1 mg/kg in PBS pH=7.4,5/10 (10% Mucin)
same,# Dead mice/Total mice in group,[5]; 0.5 mg/kg in PBS pH=7.4,0/10 (10% Mucin)
same,# Dead mice/Total mice in group,[5]; 1 mg/kg in PBS pH=7.4,0/10 (10% Mucin)
same,# Dead mice/Total mice in group,[5]; 2 mg/kg in PBS pH=7.4,0/10 (10% Mucin)
same,# Dead mice/Total mice in group,[5]; 4.5 mg/kg in PBS pH=7.4,0/10 (10% Mucin)
same,# Dead mice/Total mice in group,[5]; 9 mg/kg in PBS pH=7.4,0/10 (10% Mucin)
same,# Dead mice/Total mice in group,[5]; 18 mg/kg in PBS pH=7.4,0/10 (10% Mucin)
same,# Dead mice/Total mice in group,[5]; 37 mg/kg in PBS pH=7.4,0/10 (10% Mucin)
same,# Dead mice/Total mice in group,[5]; 75 mg/kg in PBS pH=7.4,0/10 (10% Mucin)
same,# Dead mice/Total mice in group,[5]; […] in PBS pH=7.4,1/10 (10% Mucin)
same,smallest protective dose,"[5]; protective at doses as small as, summary of the 14th table",0.25 mg/kg
same,prevention of lethal bacterial infections in mice,"[5]; result in words, summary of the 14th table",effective at preventing lethal bacterial infections in mice
"NCC[C@H](O)C(=O)N[C@@H]1C[C@H](N)[C@@H](O[C@H]2O[C@H](CN)CC[C@H]2N)[C@H](O[C@@H]2O[C@H](CO)[C@@H](O[C@H]3O[C@@H](CN)[C@@H](O)[C@H](O)[C@H]3N)[C@H]2OCCNCCc2ccccc2)[C@H]1O [Compound 87, N-1-haba-2″-O-phenylethylaminoethyl-3′,4′-dideoxy neomycin]",MIC,"E. coli ATCC 25922; Escherichia coli, ATCC25922, Example 112",< 16 µM
same,MIC,"K. pneumoniae ATCC 10031; Klebsiella pneumoniae, ATCC10031, Example 112",< 16 µM
same,MIC,S. aureus ATCC 29213,< 16 µM
same,MIC,P. aurginosa ATCC 27853,< 16 µM
same,MIC,A. baumannii ATCC 19606,< 16 µM
